The results in this text go back to patent US8063104B2, “Guanidine derivatives as inhibitors of DDAH” (UCL Business PLC, priority 2004, dated 2011).

Data set [1] concerns zymosan-induced peritonitis. The experiment in a line: Zymosan-induced peritonitis, C57/Blk6 mice. Format: in vivo. The method, then:
(§1) The effects of a DDAH inhibitor on zymosan-induced peritonitis were tested in two different strains of mice. C57/Blk6 or TO mice, male 8-10 weeks were placed in a heat box for 10 mins at 38° C., and treated with 60 mg/kg of SR291 [NA-(2-methoxyethyl)-L-arginine methyl ester] i.v. 30 mins later they were given 1 mg of zymosan i.p. A second dose of SR291 (60 mg/kg) was administered 2 h later and after 4 h mice were anesthetised with isofluorane and blood withdrawn by cardiac puncture. Mice were sacrificed and had 2 mls of ice cold PBS injected into their peritoneal cavity, the cavity was then gently massaged and cut open, the peritoneal washout was harvested and put on ice. Blood was spun down at 400 g, 10 mins at 4° C. The cells were spun at 4000 rpm for 5 mins at 4° C. Plasma was removed from the blood and frozen at −80° C. The exudates from the washout were removed and frozen at −80° C., the cell pellet was resuspended in 1 ml ice cold PBS and were counted on a haemocytometer. The cells were spun as before, the supernatant discarded and the cells frozen at −80° C. Polymorphonuclear (PMN) cell infiltrate into the peritoneal cavity was used to measure inflammation. […] Taken off at 4 hrs. […] Taken off at 4 hrs.

Data set [2] relates to eNOS. Description: eNOS assay ([14C]arginine conversion). Format: biochemical. The note with it: eNOS activity. The method, then: Compounds to be tested were added to NOS assay buffer (HEPES 50 mM pH 7.2, FAD 5 μM, FMN 5 μM, BH4 10 μM, NADPH 1 mM, DTT 0.5 mM, CaCl2 1 mM, MgCl2 1 mM, calmodulin 50 nM, [^14C] arginine 100 μM) in a final volume of 100 μl and the reaction was initiated by addition of eNOS (eNOS 3.3. U/reaction, Alexis Biochemicals). Reactions were incubated for 1 h at 37° C. and the reaction was terminated by the addition of Dowex pH 5.5 (0.85 ml) to each tube. Tubes were vortexed and microfuged <12000 g, 5 min. 100 μl of the Dowex supernatant was added to 5 ml scintillation cocktail and was counted in a scintillation counter (Hewlett Packard). The compounds were tested at 1 mM and 0.1 mM concentrations. Activity is expressed as % of control where control contained no inhibitor, n=4. The DDAH inhibitors of the present invention tested had no significant effect on eNOS activity.

For data set [3], the system named is zymosan-induced peritonitis. The experiment in a line: Zymosan-induced peritonitis, TO mice. Format: in vivo. The note with it: for cells 10^6/ml (individual animals 1-6): 60 mg/kg iv −30 min, +2 hrs, taken off at 4 hrs, listed as SR291, 60 mg/kg. The method, then: as §1
Data set [4] deals with rat aortic rings. The experiment in a line: NOx production from endotoxin-treated rat aortic rings in static culture. It counts as cell-based. The note with it: endotoxin 10 μg/ml, compound 500 μM. The method, then: FIG. 1 is a graph showing the nitrate and nitrite (NOx) production from isolated rat aortic rings in static culture in the presence of either media alone (untreated); media plus 10 μg/ml LPS (LPS) and media plus 10 μg/ml LPS and 500 μM SR257 or SR291. n≧6; *p<0.0001 One Way ANOVA plus Bonferroni post hoc correction;
Effects of two compounds SR 291 [N^G-(2-methoxyethyl)-L-arginine methyl ester] and SR 257 [N^G-(2-methoxyethyl)-L-arginine]) have been tested in a series of models of endotoxin-induced vascular dysfunction. Treatment of rat aortic vascular rings in static culture with endotoxin (10 μg/ml) led to an increase in generation of nitric oxide (as measured by nitrite and nitrate). This increase in NO was prevented by treatment with 500 μM SR257 or SR291.

Data set [5] can be described thus: Endotoxin-induced fall in systemic blood pressure in anaesthetized rat. Format: in vivo. The note with it: endotoxin 40 mg/kg, infusion 30 mg/kg/hr. The method, then:
Effects of intervention after 2-3 hours (when blood pressure had fallen to 80% of baseline pre LPS blood pressure) with 30 mg/kg/hr infusion of SR291; Injection of endotoxin (40 mg/kg) into rats caused a progressive fall in systemic BP. The decline was halted by infusion of 30 mg/kg/hr SR291.

For data set [6], the target named is T1, DDAH (Rattus norvegicus, UniProt O08557).
T1 construct: Rat kidney was homogenized in PBS; from tissue; host or cells: rat kidney homogenate, high-speed supernatant
Description: DDAH activity assay (rat kidney lysate, [14C]L-NMMA to [14C]citrulline). It counts as biochemical. The note with it: 1 mM compound, [14C]L-NMMA 1 μmol/L, 1 h 37° C. The method, then:
Rat kidney was homogenized in PBS containing PMSF 1 mM, leupeptin 5 μg/ml, pepstatin 5 μg/ml, chymostatin 5 μg/ml, and the lysate was centrifuged (4000 rpm. 20 min then supernatant further centrifuged for 40000 rpm, 30 min, 4° C.). The supernatants were analyzed for DDAH activity; [^14[…]) was added to the cell lysates (final volume 100 μl) and incubated for 1 h at 37° C. Dowex resin (0.5 ml) at neutral pH was immediately added to samples to terminate the reaction and bind unmetabolized L-NMMA. [^14C]Citrulline formation was determined by scintillation counting (Hewlett Packard).

Data set [7] is described as follows: In vivo study: serum dimethylarginine levels after i.v. bolus. Details: species or system Male Wistar rats. The note with it: 4 hours after 60 mg/kg i.v. bolus, control 1.81 ± 0.23. The method, then:
Male Wistar rats (250-300 g; Charles River, Margate, Kent, UK) were anaesthetised using Isoflurane. The jugular vein was cannulated. Animals were injected intravenously with a bolus dose of inhibitor (60 mg/kg) or saline. Anaesthesia was maintained for 4 hours at the end of which blood was obtained via cardiac puncture for the determination of serum dimethylarginine levels. [All animals received care in compliance with The British Home Office Regulations and Principles of Laboratory Animal Care. (Project licenses PPL/5344, PPL/4824, PPL 70/5580)]
SDMA is not a substrate for DDAH and the levels of SDMA would be expected to be the same of the treated and the control animals, and this was the case. Since there is a great deal of variability of the “normal” ADMA and SDMA level, it is useful to measure the ratio of ADMA and SDMA in each animal to provide a reliable indicator of the relative changes of these to substances.

Data set [8] concerns RAW cells. Description: Cell viability assay (MTT) in RAW cells.
Description: RAW cells were treated with DDAH inhibitor compound (0.5 mM) in complete media for 24 h; cells were subsequently assessed for viability by MTT assay. Cell culture media was removed from cells and replaced with 200 μl complete media containing 3-[4,5-Dimethylthiazol-2-yl]-2,5-diphenyltetrazolium bromide (MTT 0.2 mg/ml) for 30 min at 37° C. MTT containing media was removed and 100 ul DMSO was added to solubilize cells; after shaking, plates were read at OD550 nm.
The test system of data set [9] is rat aortic rings. The experiment in a line: Endotoxin-induced hyporeactivity to vasoconstrictors in rat aortic rings. It counts as cell-based. The note with it: endotoxin 0.3 μg/ml, compound 100 μM and 200 μM. The method, then:
Incubation of rat aortic rings with endotoxin (0.3 μg/ml) led to the development of hyporeactivity to vasoconstrictors.

For data set [10], the target named is T2, iNOS (Mus musculus, UniProt P29477).
T2 construct: endogenous in cells; host or cells: RAW cells stimulated with LPS/IFN and TNF
Description: iNOS activity Greiss assay in stimulated RAW cells. Format: cell-based. The note with it: Griess NOx, RAW cells stimulated 24 h with LPS/IFN and TNF, compound 0.5 mM, 550 nm; control 0.367 ± 0.021. The method, then:
RAW cells were stimulated for 24 h with LPS/IFN and TNF, in the presence of the DDAH inhibitor compounds (0.5 mM). Levels of NOx secreted into the media by the cells were determined by Griess assay: Greiss reagent [1:1 sulfanilamide ([…]) in ortho-phosphoric acid (50%) and N-(1-napthyl)ethylenediamine dihydrochloride (1%)] was added as 100 μl volume to 100 μl cell culture media and the plate was read at 550 nm and analysed in relation to sodium nitrite and nitrate standards.
Background: The Griess reaction detects nitrite, a stable product of nitric oxide.

Where “and” joins values, the source holds several entries; their conditions need not be identical. Equal entries are not always repeated.

T1 sequence (O08557 2-285 limits assumed): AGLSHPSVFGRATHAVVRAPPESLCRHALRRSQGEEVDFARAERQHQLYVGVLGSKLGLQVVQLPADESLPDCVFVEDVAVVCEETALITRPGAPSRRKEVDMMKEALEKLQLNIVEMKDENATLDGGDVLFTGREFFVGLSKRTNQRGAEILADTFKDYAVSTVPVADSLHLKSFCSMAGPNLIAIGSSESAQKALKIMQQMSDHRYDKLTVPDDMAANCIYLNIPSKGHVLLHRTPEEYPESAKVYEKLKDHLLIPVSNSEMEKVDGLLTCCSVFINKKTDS

With `COCCN=C(N)NCCCC(N)C(=O)OC` [Example 28, N^G-(2-Methoxyethyl)-L-arginine methyl ester], in data set [1] (C57 male 8-10 weeks, 60 mg/kg iv −30 min, taken off at 4 hrs, listed as SR291, 60 mg/kg), the “cells million/ml (peritoneal washout, individual animals 1-5)” value was 3 million/ml and 4 million/ml and 4.5 million/ml and 6.5 million/ml and 9 million/ml. In addition, the “cells 10^6/ml, mean” value is recorded as 4.2 10^6/ml in data set [1] (combination of two datasets for the C57 mice, saline 6.7455); 3.2 10^6/ml in [3] (cumulative of Table 9 dataset, saline 4.783333); 4.525 10^6/ml in data set [3] (cumulative of Table 11 dataset, saline 6.125); 3.8625 10^6/ml in data set [3] (cumulative of the two datasets of Tables 9 and 11, saline 5.454167). For the same compound, the “cells million/ml, mean” value in data set [1] (cumulative of Table 6 dataset, saline 9.1) amounted to 5.4 million/ml. In addition, in data set [1] (three separate experiments, 8-12 mice each, C57/Blk6 or TO mice, 60 mg/kg i.v.), the “PMN infiltrate into the peritoneal cavity” value is “significantly reduced”. Further, the “% of control ± sd” value is 120.8 ± 17.80 [2] % of control in data set [2] (0.1 mM compound) and 112.5 ± 27.47 [4] % of control in data set [2] (1 mM compound). The “cells 10^6/ml (individual animals 1-6)” value is 3.05 10^6/ml and 3.35 10^6/ml and 3.2 10^6/ml and 1.4 10^6/ml and 3.9 10^6/ml and 4.3 10^6/ml in data set [3] (TO mice male 8-10 weeks, first study); 4.3 10^6/ml (2×) and 4.6 10^6/ml and 4.85 10^6/ml and 5.2 10^6/ml and 3.9 10^6/ml in data set [3] (TO mice, second study). Besides, the “endotoxin-induced increase in NO (nitrite and nitrate)” value in [4] is reported as “prevented”. Moreover, the “progressive fall in systemic BP” value in data set [5] is reported as “halted”. This compound gave an inhibition at 1000 µM in data set [6] of 83%. The “ADMA:SDMA ± sd” value in [7] worked out at 2.73 ± 0.44. Besides, the “OD units drug ± sd” value in [8] amounted to 2.41 ± 0.10 OD units; in [10] it was 0.325 ± 0.009 OD units. Further, the “endotoxin-induced hyporeactivity to vasoconstrictors” value in data set [9] is “reversed dose dependently”.

The inhibition is how much of the control response was suppressed. A low value points to little suppression.
